What was measured:
[1] = biological target: T1, NKCCl (Rattus norvegicus, UniProt E9PTX9); experiment: Whole-cell voltage clamp, reversal potential of currents elicited by local GABA application (Egaba) in CA1 pyramidal cells; assay type: cell-based; conditions: in the presence of bumetanide, n=6 cells from 8, p=0.005, control −37±2.72 mV
T1 construct: gramicidin perforated patch clamped CA1 pyramidal neuron in an acute hippocampal slice from a P5 rat; from tissue; host or cells: acute hippocampal slices of P3-P6 male Sprague-Dawley rats; CA1 pyramidal neurons
T1 sequence (E9PTX9 1-1203): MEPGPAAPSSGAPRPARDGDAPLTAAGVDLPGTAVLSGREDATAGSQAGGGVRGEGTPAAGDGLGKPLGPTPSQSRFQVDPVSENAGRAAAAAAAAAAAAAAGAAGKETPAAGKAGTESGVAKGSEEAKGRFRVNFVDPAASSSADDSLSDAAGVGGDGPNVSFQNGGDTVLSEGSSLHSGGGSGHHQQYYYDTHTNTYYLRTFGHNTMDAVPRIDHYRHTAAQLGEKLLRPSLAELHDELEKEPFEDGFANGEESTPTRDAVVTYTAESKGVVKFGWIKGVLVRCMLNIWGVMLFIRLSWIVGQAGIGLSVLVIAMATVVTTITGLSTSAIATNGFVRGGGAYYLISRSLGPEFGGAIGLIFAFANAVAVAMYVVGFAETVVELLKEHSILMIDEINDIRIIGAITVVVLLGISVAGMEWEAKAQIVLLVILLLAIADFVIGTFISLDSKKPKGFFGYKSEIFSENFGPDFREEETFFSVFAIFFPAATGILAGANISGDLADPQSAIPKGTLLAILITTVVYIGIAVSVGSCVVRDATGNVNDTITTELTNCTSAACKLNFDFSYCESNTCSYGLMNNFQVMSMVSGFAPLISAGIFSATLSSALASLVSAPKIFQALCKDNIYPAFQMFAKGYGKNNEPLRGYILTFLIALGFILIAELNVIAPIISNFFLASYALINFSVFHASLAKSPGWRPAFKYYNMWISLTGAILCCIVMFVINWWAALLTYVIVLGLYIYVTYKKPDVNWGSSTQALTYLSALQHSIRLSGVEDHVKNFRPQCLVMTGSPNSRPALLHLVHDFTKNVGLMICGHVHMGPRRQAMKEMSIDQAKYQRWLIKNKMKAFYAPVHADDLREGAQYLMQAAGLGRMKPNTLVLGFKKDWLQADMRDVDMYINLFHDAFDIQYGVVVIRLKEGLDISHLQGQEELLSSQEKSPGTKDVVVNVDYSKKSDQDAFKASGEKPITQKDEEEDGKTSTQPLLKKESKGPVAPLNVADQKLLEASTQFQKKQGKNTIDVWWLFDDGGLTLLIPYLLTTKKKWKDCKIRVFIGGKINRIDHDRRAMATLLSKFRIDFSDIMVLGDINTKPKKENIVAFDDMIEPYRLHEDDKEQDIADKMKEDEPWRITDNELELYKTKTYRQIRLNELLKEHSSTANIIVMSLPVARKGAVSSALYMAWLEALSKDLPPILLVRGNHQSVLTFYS
From the text: In one example, direct effect of bumetanide on Egaba (excitatory GABAA) can be tested. Here, whole-cell voltage clamp recordings to measure the reversal potential of currents elicited by local application of GABA (10 pM, 10 ms pulse duration) in CA1 pyramidal cells were used.
In one example, electrophysiological recordings are gathered from individual slices and subsequently transferred to a conventional submerged-type chamber and continuously superfused with, for example, oxygenated aCSF. Whole-cell recordings were generated. Patch electrodes were used, made by known methods. For whole-cell recording in voltage-clamp mode pipettes were filled with a buffered solution.

[2] = test system: low-Mg^2+ induced recurrent seizures in the intact hippocampus; experiment: Low-Mg2+ ACSF induced recurrent seizures in the intact hippocampus in vitro; assay type: cell-based, rat; conditions: phenobarbital 100 μM, bumetanide 10 μM or both, 120 min application; intact hippocampus of P4-6 rats
From the text: High expression level of the Na^+ K^+-2Cl^− (NKCCl) co-transporter in immature neurons causes the accumulation of chloride ions and a depolarized Cl^− equilibrium potential (ECl). This is linked to a higher seizure propensity and poor EEG response in neonates to the barbiturates and benzodiazepines, conventional anticonvulsant drugs that target Cl^−-permeable GABAA-receptor (GABAA-R) operated channels. […] Recurrent ictal-like seizures were induced by low-Mg^+ ACSF in intact hippocampal preparations in vitro. […] Bumetanide decreased both seizure frequency and seizure power.
FIGS. 11A-11C are graphs of low-Mg^2+πinduced recurrent seizures in the intact hippocampus in vitro. […] First and last seizures from 5 hour recording are shown on an expanded time scale. Right, corresponding power spectra in the 0.1-1000 Hz frequency band. […] Summary data are taken from ten hippocampi. […] Power of the first seizure in each recording was considered as 100%. Data are taken from 18 recordings in 10 preparations from P4-6 rats.
FIGS. 12A-12C are graphs showing low efficiency of phenobarbital in neonatal seizures. FIG. 12A is a graph showing extracellular field potential recording in the CA3 pyramidal cell layer in the intact hippocampus of a P5 rat. Continuous application of low-Mg^2+ ACSF induced recurrent tonic-clonic seizures. […] The right portion corresponds to power spectra in the 0.1-1000 Hz frequency range. […] Data are from ten experiments that were combined. FIG. 12C is a graph showing power of recurrent seizures before, during and after phenobarbital application. Power of the first seizure in each recording was considered as 100%. Seizures were not depressed by phenobarbital indicating its low efficiency.
FIGS. 13A-13C are graphs showing that alteration of Cl^−-transport by bumetanide enhanced efficacy of phenobarbital in neonatal seizures. FIG. 13A is a graph of extracellular field potential recording in the CA3 pyramidal cell layer in the intact hippocampus of a P5 rat. Application of low-Mg^2+ ACSF induced recurrent seizures. […] These are shown on an expanded time scale. The right portion of FIG. 13A is a power spectra of extracellular field potential activity before and during application of drugs. FIG. 13B is a graph showing inter-seizure intervals before, during and after application of drugs. In 75% of experiments seizures were abolished (ISI>120 min) by simultaneous application of phenobarbital and bumetanide. FIG. 13C is a graph showing power of recurrent seizures before, during and after simultaneous application of phenobarbital and bumetanide. Power of the first seizure in each recording was considered as 100%. Seizures were depressed by combination of drugs.
FIGS. 14A and 14B are graphs showing alteration of Cl^−-transport for early-life seizure therapy. […]

In the case of `CCCCNc1cc(C(=O)O)cc(S(N)(=O)=O)c1Oc1ccccc1` [bumetanide, 3-(aminosulfonyl)-5-(butylamino)-4-phenoxybenzoic acid], the “Egaba (reversal potential of currents elicited by local application of GABA)” value [1] is reported as −40.35+2.73 mV, the seizure frequency [2] is reported as “decreased” and the seizure power [2] is reported as “decreased”.

— patent publication US20070043034A1, “Chlorine Ion Uptake Modulators and Uses Thereof” (priority 2005, published 2007)
